Data on 1 molecule can be found in publication PMC6934184, “Selective DNA-PKcs inhibition extends the therapeutic index of localized radiotherapy and chemotherapy” (The Journal of Clinical Investigation, 2019).

This test has as its target T1, ADRBK2 (GRK3) (Homo sapiens, UniProt P35626).
T1 construct: purchased Thermo Fisher Scientific (Life Technologies) SelectScreen
As to the kind of experiment: SelectScreen Z'LYTE. The test is classed as biochemical. In short, it runs like this: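 Compound tested in SelectScreen activity assays, Z'LYTE for CSF1R, CDK1/cyclin B and MAP2K6 and Adapta for CAMK1. ATP for CAMK1 was listed as 10, and Km app was used for CSF1R. Results are expressed in percent.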

T1 sequence (P35626 whole entry): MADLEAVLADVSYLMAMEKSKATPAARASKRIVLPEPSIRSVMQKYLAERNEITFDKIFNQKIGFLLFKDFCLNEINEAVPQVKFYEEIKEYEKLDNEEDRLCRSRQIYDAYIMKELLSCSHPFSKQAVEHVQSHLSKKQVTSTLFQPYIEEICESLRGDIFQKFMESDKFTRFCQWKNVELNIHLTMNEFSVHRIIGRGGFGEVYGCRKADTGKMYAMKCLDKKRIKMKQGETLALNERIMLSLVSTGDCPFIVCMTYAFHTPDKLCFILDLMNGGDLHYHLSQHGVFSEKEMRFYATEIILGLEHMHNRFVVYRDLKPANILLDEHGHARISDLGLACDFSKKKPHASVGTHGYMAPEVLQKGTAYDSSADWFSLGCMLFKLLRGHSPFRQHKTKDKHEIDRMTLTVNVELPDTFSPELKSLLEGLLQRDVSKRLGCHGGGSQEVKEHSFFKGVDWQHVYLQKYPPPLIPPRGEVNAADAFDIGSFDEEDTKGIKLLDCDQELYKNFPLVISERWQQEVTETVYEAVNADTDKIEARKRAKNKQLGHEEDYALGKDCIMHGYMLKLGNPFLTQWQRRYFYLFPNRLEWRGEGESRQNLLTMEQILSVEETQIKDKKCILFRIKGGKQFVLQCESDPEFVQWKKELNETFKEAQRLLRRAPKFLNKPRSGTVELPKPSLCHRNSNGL

`CN(C(=O)CN1CCOCC1)c1ccc2sc3c(-c4cccc5c(=O)cc(N6CC7CCC(C6)O7)oc45)cccc3c2c1` [NU5455] displayed an inhibition at 1 µM of 2.8%.

For orientation: inhibition means the change of the read-out against control, counted positive when it falls. A higher inhibition goes with a response far below the control.
